The results in this text go back to ChEMBL document CHEMBL2150976, “Camptothecins in tumor homing via an RGD sequence mimetic” (Bioorg Med Chem Lett, 2012).

In data set [1] the test system is PC-3. The data set can be described thus: Cytotoxicity against human PC3 cells expressing […] integrin assessed as cell survival after 72 hrs by SRB assay. It counts as functional, cell-based. Conditions: PC-3, 72 h. In general terms: Sulforhodamine B stains cellular protein and so reports cell mass.
Data set [2] concerns A2780. As to the kind of experiment: Cytotoxicity against human A2780 cells overexpressing […] integrin assessed as cell survival after 72 hrs by SRB assay. Type of data set: functional, cell-based. The note with it: A2780, 72 h.
The target of data set [3] is T1, Integrin alpha-V/beta-3 (Homo sapiens, UniProt P05106+P06756). As to the kind of experiment: Displacement of [125I]echistatin from integrin […] after 3 hrs by gamma counter. It counts as protein-complex assay. On the technique in general: Loss of bound radioactivity is the signal in a displacement assay; it reports binding, not function.
The target in data set [4] is Integrin alpha-V/beta-5 (Homo sapiens, UniProt P06756+P18084). As to the kind of experiment: Displacement of [125I]echistatin from integrin […] after 3 hrs by gamma counter. Type of data set: protein-complex assay.
For data set [5], the target named is T1, Integrin alpha-V/beta-3. As to the kind of experiment: Inhibition of vitronectin binding to human alphaVbeta3 integrin over expressed in A2780 cells. It counts as cell-based.
In data set [6] the target is T1, Integrin alpha-V/beta-3. The data set can be described thus: Inhibition of vitronectin binding to human alphaVbeta3 integrin expressed in PC3 cells. Type of data set: cell-based, PC-3.
The nature of data set [7]: Half life in rat plasma at 5 uM after 24 hrs by HPLC analysis. Type of data set: ADME, cell-free.
For data set [8], the system named is Mus musculus. As to the kind of experiment: Toxicity in CD1 nude mouse xenografted with human PC3 cells assessed as body weight loss at 60 mg/10 mL/kg, ip q4d x 4 schedule administered on day 3 of tumor implantation measured after 31 days post tumor implantation. The note with it: in vivo, 744 h. Type of data set: organism-based, PC-3. (In general: In xenograft studies the graft and the host belong to different species.)

The test system of data set [9] is Mus musculus. The data set can be described thus: Toxicity in CD1 nude mouse xenografted with human PC3 cells assessed as mortality at 60 mg/10 mL/kg, ip q4d x 4 schedule administered on day 3 of tumor implantation measured after 31 days post tumor implantation. The note with it: in vivo, 744 h. It counts as organism-based, PC-3.
Data set [10] relates to PC-3. As to the kind of experiment: Antimetastatic activity against human PC3 cells xenografted in CD1 nude mouse assessed as area of metastases at 60 mg/10 mL/kg, ip q4d x 4 schedule administered on day 3 of tumor implantation measured after 31 days post tumor implantation. Type of data set: functional.
Data set [11] deals with PC-3. The data set can be described thus: Antimetastatic activity against human PC3 cells xenografted in CD1 nude mouse assessed as increase in life span at 60 mg/10 mL/kg, ip q4d x 4 schedule administered on day 3 of tumor implantation measured after 31 days post tumor implantation. Type of data set: functional.
Data set [12] concerns PC-3. As to the kind of experiment: Antimetastatic activity against human PC3 cells xenografted in CD1 nude mouse assessed as median survival time at 60 mg/10 mL/kg, ip q4d x 4 schedule administered on day 3 of tumor implantation measured after 31 days post tumor implantation. Type of data set: functional.
The subject of data set [13] is Mus musculus. As to the kind of experiment: Toxicity in CD1 nude mouse xenografted with human A498 cells assessed as body weight loss at 55 mg/10 mL/kg, ip q4d x 8 schedule administered on day 3 of tumor implantation measured after 10 days. It counts as organism-based. The note with it: in vivo, 240 h.
The subject of data set [14] is Mus musculus. The data set can be described thus: Toxicity in CD1 nude mouse xenografted with human A498 cells assessed as mortality at 55 mg/10 mL/kg, ip q4d x 8 schedule administered on day 3 of tumor implantation measured after 10 days. Conditions: in vivo, 240 h. It counts as organism-based.
Data set [15] relates to A498. The data set can be described thus: Antitumor activity against human A498 cells xenografted in CD1 nude mouse assessed as tumor volume inhibition at 55 mg/10 mL/kg, ip q4d x 8 schedule administered on day 3 of tumor implantation measured after 10 days. Type of data set: functional.

T1 sequence (P05106 27-788 limits assumed): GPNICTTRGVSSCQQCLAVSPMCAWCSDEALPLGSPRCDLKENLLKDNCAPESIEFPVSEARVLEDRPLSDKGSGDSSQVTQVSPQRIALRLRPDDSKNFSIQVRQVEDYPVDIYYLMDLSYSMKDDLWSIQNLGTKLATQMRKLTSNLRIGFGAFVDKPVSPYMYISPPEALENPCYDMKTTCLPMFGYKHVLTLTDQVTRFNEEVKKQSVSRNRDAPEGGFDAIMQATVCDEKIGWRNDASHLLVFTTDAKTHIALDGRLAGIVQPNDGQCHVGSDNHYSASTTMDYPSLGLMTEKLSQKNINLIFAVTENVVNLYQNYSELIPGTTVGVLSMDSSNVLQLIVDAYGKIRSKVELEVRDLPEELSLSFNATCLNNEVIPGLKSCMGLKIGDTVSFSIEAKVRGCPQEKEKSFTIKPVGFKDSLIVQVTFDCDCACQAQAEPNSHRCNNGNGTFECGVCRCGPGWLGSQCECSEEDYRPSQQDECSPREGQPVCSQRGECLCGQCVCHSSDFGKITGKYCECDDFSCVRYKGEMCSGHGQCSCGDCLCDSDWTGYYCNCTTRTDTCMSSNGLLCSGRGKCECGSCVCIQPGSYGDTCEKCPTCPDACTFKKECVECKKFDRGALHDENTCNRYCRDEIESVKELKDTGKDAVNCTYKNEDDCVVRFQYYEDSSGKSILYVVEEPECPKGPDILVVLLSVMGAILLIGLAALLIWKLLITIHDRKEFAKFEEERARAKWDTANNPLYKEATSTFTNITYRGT
T1 sequence (P06756 31-889 limits assumed): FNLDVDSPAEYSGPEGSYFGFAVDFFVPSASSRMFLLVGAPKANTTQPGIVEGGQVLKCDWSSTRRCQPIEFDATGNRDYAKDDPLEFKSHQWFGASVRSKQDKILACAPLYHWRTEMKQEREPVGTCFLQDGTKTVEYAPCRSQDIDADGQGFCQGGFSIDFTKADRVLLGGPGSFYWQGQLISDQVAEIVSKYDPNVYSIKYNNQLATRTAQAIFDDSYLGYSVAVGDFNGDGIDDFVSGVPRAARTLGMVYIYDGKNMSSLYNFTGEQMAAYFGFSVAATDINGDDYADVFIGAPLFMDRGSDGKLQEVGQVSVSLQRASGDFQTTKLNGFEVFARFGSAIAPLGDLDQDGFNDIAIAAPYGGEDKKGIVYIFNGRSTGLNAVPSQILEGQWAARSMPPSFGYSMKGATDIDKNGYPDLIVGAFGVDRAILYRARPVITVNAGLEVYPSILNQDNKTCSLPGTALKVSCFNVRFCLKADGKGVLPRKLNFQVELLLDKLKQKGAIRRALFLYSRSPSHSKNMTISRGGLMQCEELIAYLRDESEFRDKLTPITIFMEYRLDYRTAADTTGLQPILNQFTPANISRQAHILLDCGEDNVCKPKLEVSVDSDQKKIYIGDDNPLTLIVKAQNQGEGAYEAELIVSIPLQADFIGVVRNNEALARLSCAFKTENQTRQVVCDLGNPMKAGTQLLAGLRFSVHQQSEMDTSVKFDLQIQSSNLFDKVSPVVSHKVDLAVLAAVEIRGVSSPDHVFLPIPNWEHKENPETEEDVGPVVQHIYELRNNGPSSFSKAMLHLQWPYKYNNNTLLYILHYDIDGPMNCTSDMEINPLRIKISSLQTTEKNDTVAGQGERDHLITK
T1 sequence (P06756 891-1048 limits assumed): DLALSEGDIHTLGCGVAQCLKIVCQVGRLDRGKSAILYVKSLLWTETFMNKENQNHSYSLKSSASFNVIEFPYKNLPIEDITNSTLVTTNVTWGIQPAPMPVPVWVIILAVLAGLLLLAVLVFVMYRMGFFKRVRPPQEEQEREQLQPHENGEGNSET
Integrin alpha-V/beta-5, sequence (P06756 31-889 limits assumed): as the sequence (P06756 31-889 limits assumed) above
Integrin alpha-V/beta-5, sequence (P06756 891-1048 limits assumed): as the sequence (P06756 891-1048 limits assumed) above
Integrin alpha-V/beta-5, sequence (P18084 24-799 limits assumed): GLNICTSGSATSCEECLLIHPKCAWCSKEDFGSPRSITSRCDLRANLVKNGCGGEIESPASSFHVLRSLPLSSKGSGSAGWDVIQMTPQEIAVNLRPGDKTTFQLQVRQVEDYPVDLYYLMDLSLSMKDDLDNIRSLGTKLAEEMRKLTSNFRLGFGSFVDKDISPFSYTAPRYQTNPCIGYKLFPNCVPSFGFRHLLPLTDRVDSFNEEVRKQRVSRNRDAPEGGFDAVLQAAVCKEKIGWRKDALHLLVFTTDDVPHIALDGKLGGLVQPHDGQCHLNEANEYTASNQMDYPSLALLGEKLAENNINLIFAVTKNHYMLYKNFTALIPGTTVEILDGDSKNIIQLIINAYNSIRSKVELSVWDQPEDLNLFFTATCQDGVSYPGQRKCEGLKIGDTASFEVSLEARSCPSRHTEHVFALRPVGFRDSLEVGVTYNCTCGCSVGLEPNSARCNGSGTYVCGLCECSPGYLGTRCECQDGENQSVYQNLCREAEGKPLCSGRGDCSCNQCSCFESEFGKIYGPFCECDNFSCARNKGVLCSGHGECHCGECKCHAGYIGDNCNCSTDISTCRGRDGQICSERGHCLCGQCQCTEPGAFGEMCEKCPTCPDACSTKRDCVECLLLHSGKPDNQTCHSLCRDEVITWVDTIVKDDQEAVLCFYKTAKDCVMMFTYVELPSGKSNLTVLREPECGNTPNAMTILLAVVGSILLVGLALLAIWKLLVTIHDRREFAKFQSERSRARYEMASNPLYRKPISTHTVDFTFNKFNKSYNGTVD

As for `CC[C@@]1(O)C(=O)OCc2c1cc1n(c2=O)Cc2c-1nc1ccc(O)cc1c2/C=N/OC(C)(C)C`, the figures for the IC50 in [1] and in data set [2] were 15 nM and 0.4 nM, respectively.

In the case of `N[C@@H](CCC(=O)N1CCN(c2cccc(NC3=NCCCN3)c2)CC1)C(=O)O`, the IC50 (in general, the concentration at which inhibition is half-maximal) in data set [3] turned out to be 800 nM.

In turn, `COC(=O)c1ccc(CNC(=O)N[C@@H](CCC(=O)N2CCN(c3cccc(N=C4NCCCN4)c3)CC2)C(=O)O)cc1` registered an IC50 in data set [3] of 109 nM.

Compound `COC(=O)c1ccc(COC(=O)N[C@@H](CCC(=O)N2CCN(c3cccc(NC4=NCCCN4)c3)CC2)C(=O)O)cc1` displayed an IC50 in [3] of 2.3 nM.

Turning to `CCc1c2c(nc3ccc(OC(=O)N4CCN(C(=O)c5ccc(COC(=O)N[C@@H](CCC(=O)N6CCN(c7cccc(NC8=NCCCN8)c7)CC6)C(=O)O)cc5)CC4)cc13)-c1cc3c(c(=O)n1C2)COC(=O)[C@]3(O)CC.Cl`, the IC50 was 3400 nM in data set [1]; 33 nM in data set [2]; 1.3 nM in data set [3]; 1 nM in data set [4]; 89 nM in [5]; 37 nM in data set [6]. Further, in data set [7], the half-life (as a rule, the time needed for the level to fall by half in the phase considered) at 5 µM was 13 h. Further, the Activity in data set [8] is listed as 0%; in data set [9], “Non-toxic”; in [10] it was 2.5 mm2; in data set [11] it was 34%; in data set [13], 3%; in [14] it was “Non-toxic”. The MST in data set [12] came out at 63 days. The “inhibition (INH)” value in data set [15] amounted to 39%.

With `CC[C@@]1(O)C(=O)OCc2c1cc1n(c2=O)Cc2cc3cc(OC(=O)N4CCN(C(=O)c5ccc(COC(=O)N[C@@H](CCC(=O)N6CCN(c7cccc(NC8=NCCCN8)c7)CC6)C(=O)O)cc5)CC4)ccc3nc2-1`, the IC50 in data set [1] is greater than 1000 nM; in data set [2], 110 nM; in [3] it was 2.28 nM; in data set [4] it was 2.05 nM; in [5], 730 nM; in [6], 350 nM.

As to `CC[C@@]1(O)C(=O)OCc2c1cc1n(c2=O)Cc2c-1nc1ccc(OC(=O)N3CCN(C(=O)c4ccc(COC(=O)N[C@@H](CCC(=O)N5CCN(c6cccc(NC7=NCCCN7)c6)CC5)C(=O)O)cc4)CC3)cc1c2/C=N/OC(C)(C)C`, the IC50 in data set [1] is greater than 1000 nM; in data set [2], 67 nM; in [3] it was 4.83 nM; in data set [4] it was 0.76 nM; in [5], 670 nM; in [6], 130 nM.

As for `CC[C@@]1(O)C(=O)OCc2c1cc1n(c2=O)Cc2cc3c(CN(C)C)c(OC(=O)N4CCN(C(=O)c5ccc(COC(=O)N[C@@H](CCC(=O)N6CCN(c7cccc(NC8=NCCCN8)c7)CC6)C(=O)O)cc5)CC4)ccc3nc2-1`, the IC50 was greater than 1000 nM in [1]; 570 nM in [2]; 4.97 nM in data set [3]; 0.73 nM in data set [4]; 1000 nM in [5]; 540 nM in data set [6].

In the case of `O=C(N[C@@H](CCC(=O)N1CCN(c2cccc(N=C3NCCCN3)c2)CC1)C(=O)O)OCc1ccc(C(=O)O)cc1`, the IC50 in data set [3] was determined as 0.082 nM; in data set [4] it was 2.2 nM; in data set [5], 17 nM; in data set [6], 6.3 nM.

As to `O=C(N[C@@H](CCC(=O)N1CCN(c2cccc(NC3=NCCCN3)c2)CC1)C(=O)O)OCc1ccccc1`, the IC50 in data set [3] is 3.26 nM.

On to `CCc1c2c(nc3ccc(O)cc13)-c1cc3c(c(=O)n1C2)COC(=O)[C@]3(O)CC` [7-ETHYL-10-HYDROXYCAMPTOTHECIN], for which the IC50 in data set [1] stood at 2.6 nM; in data set [2] it was 9 nM.

As for `CC[C@@]1(O)C(=O)OCc2c1cc1n(c2=O)Cc2cc3cc(O)ccc3nc2-1` [HYDROXYCAMPTOTHECIN], the IC50 in data set [1] was found to be 78 nM; in [2] it was 4 nM.

Regarding `CC[C@@]1(O)C(=O)OCc2c1cc1n(c2=O)Cc2cc3c(CN(C)C)c(O)ccc3nc2-1` [TOPOTECAN], the IC50 in data set [1] worked out at 185 nM; in data set [2], 6 nM.
